Measurements published in ChEMBL document CHEMBL5136993, “Identification of potent α-amylase inhibitors via dynamic combinatorial chemistry” (Bioorg Med Chem, 2022).

Key:
Alpha amylase [1] = biological target: T1, Alpha amylase (Homo sapiens, UniProt P0DUB6); assay: Inhibition of human saliva alpha-amylase using starch as substrate preincubated for 15 mins followed by substrate addition and measured after 15 mins
T1 sequence (P0DUB6 whole entry): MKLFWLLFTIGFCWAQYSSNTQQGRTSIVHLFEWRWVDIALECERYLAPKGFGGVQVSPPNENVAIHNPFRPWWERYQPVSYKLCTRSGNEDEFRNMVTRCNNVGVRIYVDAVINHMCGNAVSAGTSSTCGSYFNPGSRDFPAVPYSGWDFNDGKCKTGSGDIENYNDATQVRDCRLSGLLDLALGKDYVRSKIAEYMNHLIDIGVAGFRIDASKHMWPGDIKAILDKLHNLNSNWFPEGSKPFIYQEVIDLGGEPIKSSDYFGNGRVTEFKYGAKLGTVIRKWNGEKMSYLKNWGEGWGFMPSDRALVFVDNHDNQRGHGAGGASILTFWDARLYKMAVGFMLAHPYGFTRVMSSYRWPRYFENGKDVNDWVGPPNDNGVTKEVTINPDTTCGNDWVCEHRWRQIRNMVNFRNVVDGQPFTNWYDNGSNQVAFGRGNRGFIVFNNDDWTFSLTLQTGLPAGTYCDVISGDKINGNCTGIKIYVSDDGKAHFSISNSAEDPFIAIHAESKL

[2] = Cytotoxicity against HEK293 cells assessed as reduction in cell growth incubated for 12 hrs by CCK-8 assay; format: toxicity, cell-based; conditions: human
Alpha amylase [3] = biological target: T1, Alpha amylase; assay: Competitive inhibition of human saliva alpha-amylase assessed as inhibition constant using starch as substrate preincubated for 15 mins followed by substrate addition and measured after 15 mins by dixon plot analysis; format: tissue-based
[4] = system: O=C(N/N=C/c1coc2cc(Br)ccc2c1=O)c1nc(-c2cccc(Br)c2)cs1; assay: Competitive inhibition of human saliva alpha-amylase assessed as Km using starch as substrate preincubated for 15 mins followed by substrate addition and measured after 15 mins by Lineweaver-Burk plot analysis; conditions: time 30.0 min

In the case of `O=C(N/N=C/c1coc2cc(Br)ccc2c1=O)c1nc(-c2cccc(Br)c2)cs1`, the IC50 (Alpha amylase [1]) is reported as 4.46 µM, the CC50 at 12 h [2] is reported as over 100 µM and the Ki (Alpha amylase [3]) is reported as 5.4 µM.

`O=C(N/N=C/c1coc2cc(Br)ccc2c1=O)c1nc(-c2ccc(Cl)cc2)cs1` gave an IC50 (Alpha amylase [1]) of 6.1 µM and a CC50 at 12 h [2] of 68 µM.

Compound “Alpha amylase (Homo sapiens) (from UniProt P0DUB6)” has a Km [4] of 2140 µM.

For `Cc1ccc2occ(/C=N/NC(=O)c3nc(-c4ccc(F)cc4)cs3)c(=O)c2c1`, the IC50 (Alpha amylase [1]) was 19 µM.
